Results: PubChem BioAssay AID2060898 (Molecular Pharmacology Branch, DTP, NCI, 2025)

Tested on: 616215-338-R-J1-PDC complex spheroid viability
Assay: Anticancer human tumor 616215-338-R-J1-PDC patient-derived colon adenocarcinoma cell line growth inhibition [RAS]
Settings: for IC50: curve of first compound; for viability, T/C: stronger effect = lower value
Procedure, shortened: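 Multi-cell-type spheroids: tumor cells plus HUVEC endothelial cells and mesenchymal stem cells. RAS-pathway inhibitors were combined with targeted agents, each dosed in half-log steps down from clinical Cmax, or from 10 microM when Cmax was unknown.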

[1] = second compound 0.000949 µM, first compound 0.0316 µM
[2] = second compound 0.000949 µM, first compound 0.1 µM
[3] = second compound 0.000949 µM, first compound 0.316 µM
[4] = second compound 0.000949 µM, first compound 1 µM
[5] = second compound 0.003 µM, first compound 0.0316 µM
[6] = second compound 0.003 µM, first compound 0.1 µM
[7] = second compound 0.003 µM, first compound 0.316 µM
[8] = second compound 0.003 µM, first compound 1 µM
[9] = second compound 0.00949 µM, first compound 0.0316 µM
[10] = second compound 0.00949 µM, first compound 0.1 µM
[11] = second compound 0.00949 µM, first compound 0.316 µM
[12] = second compound 0.00949 µM, first compound 1 µM
[13] = second compound 0.03 µM, first compound 0.0316 µM
[14] = second compound 0.03 µM, first compound 0.1 µM
[15] = second compound 0.03 µM, first compound 0.316 µM
[16] = second compound 0.03 µM, first compound 1 µM
[17] = second compound 0.0949 µM, first compound 0.0316 µM
[18] = second compound 0.0949 µM, first compound 0.1 µM
[19] = second compound 0.0949 µM, first compound 0.316 µM
[20] = second compound 0.0949 µM, first compound 1 µM
[21] = second compound 0.3 µM, first compound 0.0316 µM
[22] = second compound 0.3 µM, first compound 0.1 µM
[23] = second compound 0.3 µM, first compound 0.316 µM
[24] = second compound 0.3 µM, first compound 1 µM
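Note: spheroids exposed to agents for seven days before viability readout.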
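Throughout, for viability, T/C: 100% = DMSO vehicle control viability.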

SMILES: CC(=O)OC12COC1CC(O)C1(C)C(=O)C(O)C3=C(C)C(OC(=O)C(O)C(NC(=O)OC(C)(C)C)c4ccccc4)CC(O)(C(OC(=O)c4ccccc4)C21)C3(C)C (centres undefined) + CCn1c(-c2cc(N3CCN(C)CC3)cnc2C(C)OC)c2c3cc(ccc31)-c1csc(n1)CC(NC(=O)C1CC1C)C(=O)N1CCCC(N1)C(=O)OCC(C)(C)C2
- IC50 (second compound 0.000949 µM): < 31.6 nM
- IC50 (second compound 0.003 µM): < 31.6 nM
- IC50 (second compound 0.00949 µM): < 31.6 nM
- IC50 (second compound 0.03 µM): < 31.6 nM
- IC50 (second compound 0.0949 µM): < 31.6 nM
- IC50 (second compound 0.3 µM): < 31.6 nM
- viability, T/C [1]: 27.1%
- viability, T/C [2]: 20.3%
- viability, T/C [3]: 18.9%
- viability, T/C [4]: 19.9%
- viability, T/C (second compound 0.000949 µM, first compound 3.16 µM): 20.7%
- viability, T/C (second compound 0.000949 µM, first compound 10 µM): 24%
- viability, T/C [5]: 22.3%
- viability, T/C [6]: 18.3%
- viability, T/C [7]: 15.9%
- viability, T/C [8]: 19.3%
- viability, T/C (second compound 0.003 µM, first compound 3.16 µM): 18.8%
- viability, T/C (second compound 0.003 µM, first compound 10 µM): 24%
- viability, T/C [9]: 18.5%
- viability, T/C [10]: 16.4%
- viability, T/C [11]: 13.3%
- viability, T/C [12]: 12%
- viability, T/C (second compound 0.00949 µM, first compound 3.16 µM): 17.2%
- viability, T/C (second compound 0.00949 µM, first compound 10 µM): 18.7%
- viability, T/C [13]: 15.6%
- viability, T/C [14]: 13.4%
- viability, T/C [15]: 13.1%
- viability, T/C [16]: 13.2%
- viability, T/C (second compound 0.03 µM, first compound 3.16 µM): 14.5%
- viability, T/C (second compound 0.03 µM, first compound 10 µM): 16.8%
- viability, T/C [17]: 15.4%
- viability, T/C [18]: 12.4%
- viability, T/C [19]: 10.8%
- viability, T/C [20]: 13.4%
- viability, T/C (second compound 0.0949 µM, first compound 3.16 µM): 13.5%
- viability, T/C (second compound 0.0949 µM, first compound 10 µM): 14%
- viability, T/C [21]: 14.9%
- viability, T/C [22]: 13.3%
- viability, T/C [23]: 10.7%
- viability, T/C [24]: 11.9%
- viability, T/C (second compound 0.3 µM, first compound 3.16 µM): 13.9%
- viability, T/C (second compound 0.3 µM, first compound 10 µM): 16.3%

SMILES: Nc1ccn(C2OC(CO)C(O)C2(F)F)c(=O)n1 (centres undefined) + CCn1c(-c2cc(N3CCN(C)CC3)cnc2C(C)OC)c2c3cc(ccc31)-c1csc(n1)CC(NC(=O)C1CC1C)C(=O)N1CCCC(N1)C(=O)OCC(C)(C)C2
- IC50 (second compound 0.000949 µM): 11.5 nM
- IC50 (second compound 0.003 µM): 7.36 nM
- IC50 (second compound 0.00949 µM): 3.62 nM
- IC50 (second compound 0.03 µM): < 3.16 nM
- IC50 (second compound 0.0949 µM): < 3.16 nM
- IC50 (second compound 0.3 µM): < 3.16 nM
- viability, T/C (second compound 0.000949 µM, first compound 0.00316 µM): 96.2%
- viability, T/C (second compound 0.000949 µM, first compound 0.01 µM): 53.7%
- viability, T/C [1]: 23.7%
- viability, T/C [2]: 13.8%
- viability, T/C [3]: 13.5%
- viability, T/C [4]: 15.7%
- viability, T/C (second compound 0.003 µM, first compound 0.00316 µM): 80.8%
- viability, T/C (second compound 0.003 µM, first compound 0.01 µM): 38.6%
- viability, T/C [5]: 20.2%
- viability, T/C [6]: 10.3%
- viability, T/C [7]: 11.4%
- viability, T/C [8]: 11%
- viability, T/C (second compound 0.00949 µM, first compound 0.00316 µM): 52.9%
- viability, T/C (second compound 0.00949 µM, first compound 0.01 µM): 28.8%
- viability, T/C [9]: 19.2%
- viability, T/C [10]: 9.65%
- viability, T/C [11]: 12.4%
- viability, T/C [12]: 10.4%
- viability, T/C (second compound 0.03 µM, first compound 0.00316 µM): 33.8%
- viability, T/C (second compound 0.03 µM, first compound 0.01 µM): 25.8%
- viability, T/C [13]: 18.5%
- viability, T/C [14]: 9.6%
- viability, T/C [15]: 8.72%
- viability, T/C [16]: 9.03%
- viability, T/C (second compound 0.0949 µM, first compound 0.00316 µM): 31.6%
- viability, T/C (second compound 0.0949 µM, first compound 0.01 µM): 22.4%
- viability, T/C [17]: 17.2%
- viability, T/C [18]: 7.8%
- viability, T/C [19]: 9.83%
- viability, T/C [20]: 8.16%
- viability, T/C (second compound 0.3 µM, first compound 0.00316 µM): 37.6%
- viability, T/C (second compound 0.3 µM, first compound 0.01 µM): 25.7%
- viability, T/C [21]: 21.4%
- viability, T/C [22]: 12.1%
- viability, T/C [23]: 9.28%
- viability, T/C [24]: 8.49%
